Measurements as given in the supplement of paper PMC11061612.

Experiments:
Experiment in all cases: Bliss excess, mean over the matrix (fraction); higher = more synergy
[1] = test system: JJN-3 (Plasma Cell Myeloma)
Method in brief: (§1)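 After 24 hours at 37°C and 5% CO2 in 1536-well plates, cells in DMEM/F12 or RPMI plus 10% FBS received two-drug dose matrices for 72 hours. Viability came from CellTiter-Glo 2.0 luminescence and was scaled as inhibition, anchored at 0 by vehicle wells and at 1 by blank wells. Combination Emax is taken as the second-highest inhibition in the matrix, and Bliss excess as the observed combination effect less EA + EB − EA·EB, with EA and EB the single-agent effects.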

[2] = test system: NCI-H1435 (Non-Small Cell Lung Carcinoma)
Method in brief: as §1

C32 (Melanoma) = test system: C32 (Melanoma)
Method in brief: as §1

SK-MEL-24 (Melanoma) = test system: SK-MEL-24 (Melanoma)
Method in brief: as §1

[3] = test system: IGROV-1 (Ovarian Carcinoma)
Method in brief: as §1

[4] = test system: NCI-H1648 (Lung Adenocarcinoma)
Method in brief: as §1

[5] = test system: OCI-M1 (Acute Myeloid Leukemia)
Method in brief: as §1

[6] = test system: SBC-3 (Small Cell Lung Carcinoma)
Method in brief: as §1

[7] = test system: RS4-11 (B-Lymphoblastic Leukemia)
Method in brief: as §1

[8] = test system: HT-1197 (Bladder Carcinoma)
Method in brief: as §1

[9] = test system: CAL-85-1 (Breast Carcinoma)
Method in brief: as §1

[10] = test system: C2BBe1 (Colorectal Carcinoma)
Method in brief: as §1

[11] = test system: NCI-H2170 (Squamous Cell Lung Carcinoma)
Method in brief: as §1

[12] = test system: BT-474 (Breast Carcinoma)
Method in brief: as §1

[13] = test system: MRK-nu-1 (Breast Carcinoma)
Method in brief: as §1

[14] = test system: RPMI-8402 (T-Lymphoblastic Leukemia)
Method in brief: as §1

MG-63 (Osteosarcoma) = test system: MG-63 (Osteosarcoma)
Method in brief: as §1

[15] = test system: Daudi (Burkitt's Lymphoma)
Method in brief: as §1

[16] = test system: SBC-5 (Small Cell Lung Carcinoma)
Method in brief: as §1

[17] = test system: SUP-HD1 (Hodgkin's Lymphoma)
Method in brief: as §1

| Structure (SMILES) | Bliss excess [1] | Bliss excess [2] | Bliss excess (C32 (Melanoma)) | Bliss excess (SK-MEL-24 (Melanoma)) | Bliss excess [3] | Bliss excess [4] | Bliss excess [5] | Bliss excess [6] | Bliss excess [7] | Bliss excess [8] | Bliss excess [9] | Bliss excess [10] | Bliss excess [11] | Bliss excess [12] | Bliss excess [13] | Bliss excess [14] | Bliss excess (MG-63 (Osteosarcoma)) | Bliss excess [15] | Bliss excess [16] | Bliss excess [17] |
| --- | --- | --- | --- | --- | --- | --- | --- | --- | --- | --- | --- | --- | --- | --- | --- | --- | --- | --- | --- | --- |
| C=CCn1c(=O)c2cnc(Nc3ccc(N4CCN(C)CC4)cc3)nc2n1-c1cccc(C(C)(C)O)n1 [AZD1775] + C1CN(CCC1(C(=O)N[C@@H](CCO)C2=CC=C(C=C2)Cl)N)C3=NC=NC4=C3C=CN4 [Capivasertib] (first compound max 3 µM, partner max 3 µM) | -0.0417 | 0.0011 | -0.0772 | 0.0047 | -0.0435 | -0.0257 | 0.0245 | -0.0786 | 0.0201 | -0.0488 | -0.0528 | -0.077 | -0.0454 | 0.0145 | -0.0885 | 0.0084 | -0.0484 | 0.0313 | 0.0256 | -0.0378 |
| CN(CCO)CC[C@H](CSc1ccccc1)Nc1ccc(S(=O)(=O)NC(=O)c2ccc(N3CCC([C@@H](O)c4ccccc4-c4ccc(Cl)cc4)CC3)cc2)cc1S(=O)(=O)C(F)(F)F [AZD4320] + C1CN(CCC1(C(=O)N[C@@H](CCO)C2=CC=C(C=C2)Cl)N)C3=NC=NC4=C3C=CN4 [Capivasertib] (first compound max 1 µM, 7x7, partner max 3 µM) | -0.0265 | 0.0003 | -0.0564 | -0.0428 | -0.0385 | -0.067 | -0.0161 | -0.0793 | 0.0024 | 0.0311 | -0.0219 | -0.0214 | -0.023 | -0.0487 | -0.0681 | 0.0394 | -0.0785 | -0.0512 | -0.0207 | -0.022 |
| CN(CCO)CC[C@H](CSc1ccccc1)Nc1ccc(S(=O)(=O)NC(=O)c2ccc(N3CCC([C@@H](O)c4ccccc4-c4ccc(Cl)cc4)CC3)cc2)cc1S(=O)(=O)C(F)(F)F [AZD4320] + CC(=O)O[C@H]1C(=O)[C@@]2(C)[C@H]([C@H](OC(=O)c3ccccc3)[C@]3(O)C[C@H](OC(=O)[C@H](O)[C@@H](NC(=O)c4ccccc4)c4ccccc4)C(C)=C1C3(C)C)[C@]1(OC(C)=O)CO[C@@H]1C[C@@H]2O [Paclitaxel] (first compound max 1 µM, 7x7, partner max 3 µM) | – | 0.167 | 0.107 | 0.0574 | – | -0.0009 | – | 0.0387 | – | – | 0.0773 | – | – | – | 0.0162 | -0.0038 | 0.0471 | – | – | – |
| CN(CCO)CC[C@H](CSc1ccccc1)Nc1ccc(S(=O)(=O)NC(=O)c2ccc(N3CCC([C@@H](O)c4ccccc4-c4ccc(Cl)cc4)CC3)cc2)cc1S(=O)(=O)C(F)(F)F [AZD4320] + CCN(CCO)CCCOc1ccc2c(Nc3cc(CC(=O)Nc4cccc(F)c4)[nH]n3)ncnc2c1 [AZD2811] (first compound max 1 µM, 7x7, partner max 1 µM) | 0.151 | 0.004 | 0.114 | -0.0647 | 0.0206 | 0.0065 | 0.0074 | 0.0224 | -0.0011 | -0.016 | 0.0218 | -0.0326 | -0.051 | 0.0081 | 0.0505 | 0.0501 | 0.0838 | 0.0078 | -0.0075 | 0.0476 |
| CN(CCO)CC[C@H](CSc1ccccc1)Nc1ccc(S(=O)(=O)NC(=O)c2ccc(N3CCC([C@@H](O)c4ccccc4-c4ccc(Cl)cc4)CC3)cc2)cc1S(=O)(=O)C(F)(F)F [AZD4320] + C[C@@H]1COCCN1C2=NC(=NC(=C2)C3(CC3)[S@](=N)(=O)C)C4=C5C=CNC5=NC=C4 [AZD6738] (first compound max 1 µM, 7x7, partner max 10 µM) | 0.0041 | 0.0366 | 0.0653 | -0.0584 | -0.0353 | -0.0523 | 0.0051 | -0.0184 | 0.026 | -0.0672 | -0.0048 | -0.14 | -0.0478 | -0.0901 | 0.0039 | 0.031 | -0.0762 | -0.0403 | -0.0511 | -0.0207 |
| CN(CCO)CC[C@H](CSc1ccccc1)Nc1ccc(S(=O)(=O)NC(=O)c2ccc(N3CCC([C@@H](O)c4ccccc4-c4ccc(Cl)cc4)CC3)cc2)cc1S(=O)(=O)C(F)(F)F [AZD4320] + C[C@@H](Nc1cc(F)cc(F)c1)c1cc(C(=O)N(C)C)cc2c(=O)cc(N3CCOCC3)oc12 [AZD8186] (first compound max 1 µM, 7x7, partner max 3 µM) | 0.0409 | 0.131 | -0.0046 | -0.0354 | 0.042 | 0.0323 | 0.0278 | -0.0093 | 0.0239 | 0.0598 | 0.0145 | 0.0231 | 0.0284 | 0.0516 | -0.0216 | 0.0715 | -0.0149 | 0.0555 | 0.0591 | 0.0322 |
| CN(CCO)CC[C@H](CSc1ccccc1)Nc1ccc(S(=O)(=O)NC(=O)c2ccc(N3CCC([C@@H](O)c4ccccc4-c4ccc(Cl)cc4)CC3)cc2)cc1S(=O)(=O)C(F)(F)F [AZD4320] + Cc1cc2ncnn2cc1Nc1ncc2c(n1)n(C1CCOCC1)c(=O)n2C [AZD7648] (first compound max 1 µM, 7x7, partner max 10 µM) | 0.0461 | 0.0137 | -0.0275 | -0.0429 | 0.0266 | -0.0264 | 0.0138 | -0.0767 | -0.0148 | -0.0497 | -0.0118 | -0.0403 | -0.006 | -0.0628 | 0.0501 | 0.0194 | -0.0463 | -0.0115 | -0.032 | 0.0039 |
| Cc1cc2ncnn2cc1Nc1ncc2c(n1)n(C1CCOCC1)c(=O)n2C [AZD7648] + C=CCn1c(=O)c2cnc(Nc3ccc(N4CCN(C)CC4)cc3)nc2n1-c1cccc(C(C)(C)O)n1 [AZD1775] (first compound max 10 µM, partner max 1 µM) | -0.0726 | 0.0816 | 0.0106 | -0.015 | -0.0431 | 0.0026 | -0.044 | -0.0374 | 0.0667 | -0.0553 | -0.0292 | -0.0115 | -0.0972 | 0.0103 | 0.0279 | -0.0213 | 0.0269 | -0.0101 | -0.0136 | -0.0943 |
| Cc1cc2ncnn2cc1Nc1ncc2c(n1)n(C1CCOCC1)c(=O)n2C [AZD7648] + CCN(CCO)CCCOc1ccc2c(Nc3cc(CC(=O)Nc4cccc(F)c4)[nH]n3)ncnc2c1 [AZD2811] (first compound max 10 µM, 7x7, partner max 1 µM) | 0.0202 | 0.0409 | 0.0271 | -0.0121 | -0.115 | 0.0369 | 0.0449 | 0.0455 | -0.0355 | -0.0131 | -0.0195 | 0.0124 | 0.0187 | -0.0214 | 0.0245 | -0.0443 | 0.0401 | 0.0652 | 0.057 | 0.0506 |
| Cc1cc2ncnn2cc1Nc1ncc2c(n1)n(C1CCOCC1)c(=O)n2C [AZD7648] + CN(C)CCCOc1ccc(-c2ccc3ncc4c(c3c2)n(C2CCOCC2)c(=O)n4C)cn1 [AZD0156] (first compound max 10 µM, 7x7, partner max 1 µM) | -0.0058 | 0.0091 | 0.003 | -0.0325 | -0.0328 | 0.0176 | 0.0385 | 0.0332 | 0.0397 | -0.0117 | -0.0542 | -0.0408 | 0.009 | 0.0241 | 0.0348 | 0.0104 | 0.0397 | 0.0327 | 0.0236 | -0.0306 |
| Cc1cc2ncnn2cc1Nc1ncc2c(n1)n(C1CCOCC1)c(=O)n2C [AZD7648] + COc1cc([C@@H]2c3cc4c(cc3[C@@H](O[C@@H]3O[C@@H]5CO[C@@H](C)O[C@H]5[C@H](O)[C@H]3O)[C@H]3COC(=O)[C@H]23)OCO4)cc(OC)c1O [Etoposide] (first compound max 10 µM, 7x7, partner max 10 µM) | – | 0.0043 | 0.0402 | 0.0438 | – | -0.0577 | – | 0.119 | – | – | 0.0483 | – | – | – | 0.0829 | 0.0847 | 0.0878 | – | – | – |
| Cc1cc2ncnn2cc1Nc1ncc2c(n1)n(C1CCOCC1)c(=O)n2C [AZD7648] + C[C@@H]1COCCN1C2=NC(=NC(=C2)C3(CC3)[S@](=N)(=O)C)C4=C5C=CNC5=NC=C4 [AZD6738] (first compound max 10 µM, 7x7, partner max 10 µM) | -0.0051 | 0.0536 | -0.0021 | 0.0523 | -0.08 | -0.0379 | 0.0125 | 0 | -0.058 | -0.0226 | 0.0307 | 0.0209 | -0.0153 | 0.0245 | 0.0054 | 0.0216 | 0.0557 | 0.0285 | 0.0284 | -0.0375 |
| N#Cc1cnc(Nc2cc(NC[C@H]3CNCCO3)c(C(F)(F)F)cn2)cn1 [SRA737] + CCc1c2c(nc3ccc(O)cc13)-c1cc3c(c(=O)n1C2)COC(=O)[C@]3(O)CC [SN-38] (first compound max 10 µM, 7x7, partner max 0.3 µM) | – | -0.0243 | -0.0762 | -0.0221 | – | – | – | -0.0632 | – | – | -0.0479 | – | – | – | -0.128 | -0.0209 | -0.0251 | – | – | – |
| N#Cc1cnc(Nc2cc(NC[C@H]3CNCCO3)c(C(F)(F)F)cn2)cn1 [SRA737] + Nc1ccn([C@@H]2O[C@H](CO)[C@@H](O)C2(F)F)c(=O)n1 [Gemcitabine] (first compound max 10 µM, 7x7, partner max 0.3 µM) | – | 0.0521 | -0.0986 | 0.0307 | – | 0.0912 | – | 0.0064 | – | – | 0.0442 | – | – | – | 0.0214 | 0.0312 | 0.124 | – | – | – |
| C[C@@H](c1ccc2nccn2c1)n1nnc2ncc(-c3cnn(C)c3)nc21 [Savolitinib] + CN(CC[C@H](CSC1=CC=CC=C1)NC2=C(C=C(C=C2)S(=O)(=O)NC(=O)C3=CC=C(C=C3)N4CCC(CC4)[C@H](C5=CC=CC=C5C6=CC=C(C=C6)Cl)O)S(=O)(=O)C(F)(F)F)CCO [AZD4320] (first compound max 1 µM, 7x7, partner max 1 µM) | -0.0374 | – | -0.0103 | – | -0.0735 | – | -0.0212 | – | -0.0131 | -0.0354 | – | -0.0348 | -0.0589 | -0.0534 | – | – | – | -0.0219 | -0.0003 | 0.0355 |
